US20120040951A1, “HETEROARYL COMPOUNDS USEFUL AS RAF KINASE INHIBITORS” (priority 2008, published 2012)

Test system: phospho-ERK in melanoma derived WM-266-4 cells
Experiment: Mechanistic cellular assay for Raf kinase activity (phospho-ERK, Bio-Plex)
Format: cell-based
Settings: Homo sapiens, treated 1-2 hr at 37° C., serum free medium, read-out: pERK EC50
Excerpt: (2) Mechanistic Cellular Assay for Raf Kinase Activity
The following method was utilized for quantifying the amount of phospho-ERK in melanoma derived WM-266-4 cells (one allele each of wild type BRaf and mutant BRaf (V600D) as an indicator of Raf kinase activity in cells treated with various kinase inhibitors.
(1) Detached adhered WM-266-4 cells from flask using 0.25% Trypsin. Resuspended cells in growth media (90% RPMI 1640, 10% FBS) and determine cell density.
(2) Seeded cells @ 10,000 cells/well in 96-well (flat bottom) tissue culture plates (36,000 cells/cm^2). Added growth media to a final volume of 200 uL/well and incubated overnight at 37° C.
(1) Prepared compound dilutions (1000× in DMSO) as follows. Starting with a stock of 5 mM compound in DMSO, diluted serially 3-fold in DMSO for a total of eight concentrations (5 mM, 1.67 mM, 0.556 mM, 0.185 mM, 0.062 mM, 0.021 mM, 0.007 mM, 0.002 mM).
(2) Prepared compound-containing media by adding 1 mL treatment media (100% RPMI 1640 without FBS) to 1 μL of compound dilution (from step 3).
(3) Removed plates (from step 2) from incubator. Aspirated media and replace with 150 μL compound-containing media. Incubate for 1-2 hr at 37° C.
(4) Removed plates (from step 5) from incubator and treated each as follows: aspirated compound-containing media and replaced with 300 μL ice-cold 1×PBS, aspirated PBS and replaced with 45 μL lysis buffer (Biorad Bio-Plex lysis buffer containing 0.4% v/v lysis buff. Factor 1, 0.2% v/v lysis buff. Factor 2, and PMSF to 2 mM final concentration), and then placed plate on ice until all plates were treated.
(5) After all plates were processed (step 6), placed plates on an orbital shaker and shook at room temperature for at least 15 min.
(6) Finally, removed plates from shaker, and transfered 40 μL/well of lysate from each to new corresponding 96-well V-bottom plates. At this point, samples may be frozen and stored @−80 C.°.
(1) Thaw (if necessary) plates (from step 8) and added 40 μL of Phospho-Protein Assay Buffer to each 40 μL lysate for a 1:1 dilution.
(2) Prepared phospho-ERK1,2 Bioplex beads by diluting 1:50 with Bioplex Wash Buffer (mixing 49 μL Wash Buffer with 1 μL of phospho-ERK1,2 Bioplex beads for each sample to be analyzed). Protected from light by wrapping tube in aluminum foil and kept at room temperature.
(3) Prepared Filter Plate by adding 100 μL/well Bioplex Wash Buffer and removed by vacuum filtration.
(4) Add 50 μL of bead solution (from step 10) to each well of a prepared Filter Plate (from step 11) and vacuum filter. Wash/filter 2× with 100 μL/well Wash Buffer.
(5) Added 50 μL of each lysate to appropriate well of the Filter Plate (from step 12). For this and all subsequent plate incubation steps, placed plate on an inverted plate cover (reduces background), and wrapped in aluminum foil (to protect from light). Shook overnight at room temperature. Included positive (control lysate) and negative (lysis buffer) controls.
(1) Prepared detection antibody (phospho-ERK1,2 Ab) by diluting 1:25 with Detection Antibody Dilution Buffer Buffer (mixing 24 μL Detection Antibody Dilution Buffer with 1 μL of phospho-ERK1,2 Ab for each sample to be analyzed).
(2) Removed plate (from step 13) from shaker and vacuum filter. Washed/filter plate 3× with 100 μL/well Wash Buffer. Added 25 μL of diluted antibody to each well. Incubated on shaker at RT for 30-45 min.
(3) Prepared streptavidin-PE by diluting 1:100 with Wash Buffer (mixing 49.5 μL Wash Buffer with 0.5 μL of 100× streptavidin-PE for each sample to be analyzed). Protected from light.
(4) Removed plate (from step 15) from shaker and vacuum filter. Washed/filter plate 3× with 100 μL/well Wash Buffer. Add 50 μL of diluted streptavidin-PE solution (from step 16) to each sample well. Incubated on shaker for 10-20 min.
(5) Removed plate from shaker and vacuum filter. Wash/filter plate 3× with 100 μL/well Bead Resuspension Buffer. After last wash resuspended beads in 125 μL Bead Resuspension Buffer. […]

| EC50 [µM] | Structure (SMILES) |
| --- | --- |
| ≤ 0.1 | C[C@@H](NC(=O)c1cnc2n1CCN2)c1ncc(C(=O)Nc2cc(C(F)(F)F)c(Cl)cn2)s1 [Example 169] |
| 1 to 10 | CC(NC(=O)c1ccc2cn[nH]c2c1)c1ccc(C(=O)Nc2cccc(C(F)(F)F)c2)s1 (centres unmarked) [Example 194] |
| 0.1 to 1 | CC(NC(=O)c1cc2c(cn1)ncn2CCN)c1cnc(Nc2ccc(C(F)(F)F)cc2)s1 (centres unmarked) [Example 23] |
| 0.1 to 1 | COc1cc(-c2ccc3c(C(=O)NC(C)c4ncc(C(=O)Nc5cc(C(F)(F)F)c(Cl)cn5)s4)cnn3c2)ccn1 (centres unmarked) [Example 330] |
| ≤ 0.1 | Cc1ncc(C(=O)NC(C)c2ncc(C(=O)Nc3cc(C(F)(F)F)c(Cl)cn3)s2)n1-c1ccncc1 (centres unmarked) [Example 159] |
| 0.1 to 1 | CCN1CC(n2cnc3cnc(C(=O)NC(C)c4cnc(Nc5ccc(C(F)(F)F)nc5)s4)cc32)C1 (centres unmarked) [Example 294] |
| ≤ 0.1 | CC(NC(=O)c1cc2c(cn1)ncn2C)c1cnc(Nc2cccc(C(C)(C)C(F)(F)F)c2)s1 (centres unmarked) [Example 278] |
| 0.1 to 1 | CC(NC(=O)c1cc2c(cn1)ncn2C)c1cnc(Nc2cccc(C(C)(C)C#N)c2)s1 (centres unmarked) [Example 252] |
| 0.1 to 1 | CC(NC(=O)c1cnn2cc(-c3ccnc(F)c3)ccc12)c1nc(C(=O)Nc2cc(C(F)(F)F)c(Cl)cn2)cs1 (centres unmarked) [Example 326] |
| 0.1 to 1 | CC(NC(=O)c1cc2c(cn1)ncn2C)c1cnc(Nc2ccc(C(F)(F)F)cc2N(C)C)s1 (centres unmarked) [Example 275] |
| 0.1 to 1 | CC(NC(=O)c1cn2c(N)cnc2cn1)c1ncc(Nc2ccc(C(F)(F)F)cc2)s1 (centres unmarked) [Example 302] |
| 0.1 to 1 | C[C@@H](NC(=O)c1cnc2n1CCN2C)c1ncc(C(=O)Nc2cc(C(F)(F)F)c(Cl)cn2)s1 [Example 172] |
| 0.1 to 1 | Cc1nc2cnc(C(=O)NC(C)c3ncc(Nc4ccc(C(F)(F)F)cc4)s3)cn2c1N (centres unmarked) [Example 305] |
| ≤ 0.1 | CC(NC(=O)c1cc2c(cn1)ncn2C(C)(C)C)c1cnc(Nc2ccc(C(F)(F)F)cc2)s1 (centres unmarked) [Example 13] |
| 0.1 to 1 | CC(NC(=O)c1cc2c(cn1)ncn2C(C)C)c1cnc(Nc2ccc(C(F)(F)F)cc2)cn1 (centres unmarked) [Example 80] |
| 0.1 to 1 | C[C@@H](NC(=O)c1cn[nH]c1)c1ncc(C(=O)Nc2cc(C(F)(F)F)c(Cl)cn2)s1 [Example 112] |
| 0.1 to 1 | Cc1ccc2cc(C(=O)N[C@H](C)c3ncc(C(=O)Nc4cc(C(F)(F)F)c(Cl)cn4)s3)ccc2n1 [Example 60] |
| ≤ 0.1 | C[C@@H](NC(=O)c1cnc2[nH]ccc2c1)c1ncc(C(=O)Nc2cc(C(F)(F)F)c(Cl)cn2)s1 [Example 81] |
| ≤ 0.1 | C[C@@H](NC(=O)c1cnc2n1CCCC2)c1ncc(C(=O)Nc2cc(C(F)(F)F)c(Cl)cn2)s1 [Example 335] |
| 0.1 to 1 | CC(NC(=O)c1cccc(-c2cccnc2)c1)c1ncc(C(=O)Nc2cc(C(F)(F)F)c(Cl)cn2)s1 (centres unmarked) [Example 47] |
| ≤ 0.1 | CC(NC(=O)c1cnn2c1CCCC2)c1ncc(C(=O)Nc2cc(C(F)(F)F)c(Cl)cn2)s1 (centres unmarked) [Example 84] |
| 1 to 10 | CC(NC(=O)c1cc2c(cn1)ncn2C)c1cnc(Nc2cc(Cl)ncn2)s1 (centres unmarked) [Example 260] |
| ≤ 0.1 | C[C@@H](NC(=O)c1cnc2n1CCC(=O)N2)c1ncc(C(=O)Nc2cc(C(F)(F)F)c(Cl)cn2)s1 [Example 173] |
| 1 to 10 | CC(NC(=O)c1cn2c(NC(C)(C)CC(C)(C)C)cnc2cn1)c1ncc(Nc2ccc(C(F)(F)F)cc2)s1 (centres unmarked) [Example 301] |
| ≤ 0.1 | CCn1cnc2cnc(C(=O)NC(C)c3cnc(Nc4ccc(C(F)(F)F)cc4)cn3)cc21 (centres unmarked) [Example 38] |
| 0.1 to 1 | C[C@@H](NC(=O)c1ccc2c(c1)OCCO2)c1ncc(C(=O)Nc2cc(C(F)(F)F)c(Cl)cn2)s1 [Example 70] |
| 1 to 10 | CC(NC(=O)c1cc2cnn(C)c2cn1)c1cnc(Nc2ccc(C(F)(F)F)cc2)s1 (centres unmarked) [Example 204] |

| EC50 [µM] | Structure (SMILES) |
| --- | --- |
| 0.1 to 1 | C[C@@H](NC(=O)c1cncn1C)c1ncc(C(=O)Nc2cc(C(F)(F)F)c(Cl)cn2)s1 [Example 141] |
| ≤ 0.1 | CC(NC(=O)c1cc2c(cn1)ncn2C1CCCC1)c1cnc(Nc2ccc(C(F)(F)F)cc2)s1 (centres unmarked) [Example 17] |
| ≤ 0.1 | CC(NC(=O)c1cc2c(cn1)ncn2C1CCC1)c1cnc(Nc2ccc(C(F)(F)F)cc2)s1 (centres unmarked) [Example 14] |
| ≤ 0.1 | C[C@@H](NC(=O)c1ccc2nc(N)sc2c1)c1ncc(C(=O)Nc2cc(C(F)(F)F)c(Cl)cn2)s1 [Example 59] |
| 0.1 to 1 | Cc1nc(C(F)(F)F)ccc1Nc1ncc(C(C)NC(=O)c2cc3c(cn2)ncn3C)s1 (centres unmarked) [Example 259] |
| ≤ 0.1 | CC(NC(=O)c1cn2c(Br)cnc2cn1)c1cnc(Nc2ccc(C(F)(F)F)cc2)s1 (centres unmarked) [Example 297] |
| ≤ 0.1 | CCS(=O)(=O)N1CC(n2cnc3cnc(C(=O)N[C@H](C)c4cnc(Nc5ccc(C(F)(F)F)cc5)cn4)cc32)C1 [Example 342] |
| 0.1 to 1 | C[C@@H](NC(=O)c1cnn2cccnc12)c1ncc(C(=O)Nc2cc(C(F)(F)F)c(Cl)cn2)s1 [Example 226] |
| 0.1 to 1 | CC(NC(=O)c1cc2c(cn1)ncn2C)c1cnc(Nc2cnc(C(C)(C)C)nc2)cn1 (centres unmarked) [Example 256] |
| 0.1 to 1 | Cc1nc2cnc(C(=O)NC(C)c3cnc(Nc4ccc(C(F)(F)F)cc4)s3)cc2n1C (centres unmarked) [Example 10] |
| 1 to 10 | CC(NC(=O)c1ncc2ncn(C)c2n1)c1cnc(Nc2ccc(C(F)(F)F)cc2)cn1 (centres unmarked) [Example 191] |
| ≤ 0.1 | CC(NC(=O)c1cc2c(cn1)ncn2C)c1cnc(Nc2cnc(C(C)(C)C)nc2)s1 (centres unmarked) [Example 240] |
| ≤ 0.1 | C[C@@H](NC(=O)c1cnn2c1CCCC2)c1ncc(C(=O)Nc2cc(C(F)(F)F)c(Cl)cn2)s1 [Example 85] |
| ≤ 0.1 | CCn1cnc2cnc(C(=O)N[C@H](C)c3cnc(Nc4ccc(C(F)(F)F)cc4)s3)cc21 [Example 20] |
| 0.1 to 1 | CC(NC(=O)c1cc2c(cn1)ncn2C)c1cnc(Nc2ccc(C(F)(F)F)nc2)s1 (centres unmarked) [Example 246] |
| ≤ 0.1 | C[C@@H](NC(=O)c1cc2c(cn1)ncn2C)c1cnc(Nc2ccc(Cl)c(C(F)(F)F)c2)cn1 (single isomer, unassigned) [Example 236] |
| 1 to 10 | COc1ncc(C(=O)N[C@H](C)c2ncc(C(=O)Nc3cc(C(F)(F)F)c(Cl)cn3)s2)n1C [Example 157] |
| 1 to 10 | CNc1ncc(C(=O)N[C@H](C)c2ncc(C(=O)Nc3cc(C(F)(F)F)c(Cl)cn3)s2)n1C [Example 160] |
| 1 to 10 | CC(NC(=O)c1cc2c(cn1)ncn2C)c1cnc(Nc2cc(CN(C)C)cc(C(F)(F)F)c2)s1 (centres unmarked) [Example 357] |
| 1 to 10 | CC(NC(=O)c1cc2c(cn1)ncn2CC(N)=O)c1cnc(Nc2ccc(C(F)(F)F)cc2)s1 (centres unmarked) [Example 355] |
| 0.1 to 1 | CCN1CC(n2cnc3cnc(C(=O)NC(C)c4cnc(Nc5cnc(C(C)(C)C)nc5)s4)cc32)C1 (centres unmarked) [Example 288] |
| 0.1 to 1 | Cc1[nH]ncc1C(=O)N[C@H](C)c1ncc(C(=O)Nc2cc(C(F)(F)F)c(Cl)cn2)s1 [Example 113] |
| ≤ 0.1 | Cc1ncc(C(=O)N[C@H](C)c2ncc(C(=O)Nc3cc(C(F)(F)F)c(Cl)cn3)s2)n1C(C)C [Example 158] |
| 0.1 to 1 | CC(NC(=O)c1cc2c(cn1)ncn2C1CCN(C)CC1)c1cnc(Nc2ccc(C(F)(F)F)cc2)s1 (centres unmarked) [Example 11] |
| 1 to 10 | C[C@H](NC(=O)c1cc2c(cn1)ncn2C)c1cnc(Nc2ccc(C(F)(F)F)cc2)cn1 (single isomer, unassigned) [Example 36] |
| ≤ 0.1 | C[C@@H](NC(=O)c1cnc2n1CCCCC2)c1ncc(C(=O)Nc2cc(C(F)(F)F)c(Cl)cn2)s1 [Example 168] |
